Laboratory results published in ChEMBL document CHEMBL5291721, “A preclinical secondary pharmacology resource illuminates target-adverse drug reaction associations of marketed drugs” (Nat Commun, 2023).

Experiments:
Adenosine receptor A3 = molecular target: T1, Adenosine receptor A3 (Homo sapiens, UniProt P0DMS8)
T1 sequence (P0DMS8 whole entry): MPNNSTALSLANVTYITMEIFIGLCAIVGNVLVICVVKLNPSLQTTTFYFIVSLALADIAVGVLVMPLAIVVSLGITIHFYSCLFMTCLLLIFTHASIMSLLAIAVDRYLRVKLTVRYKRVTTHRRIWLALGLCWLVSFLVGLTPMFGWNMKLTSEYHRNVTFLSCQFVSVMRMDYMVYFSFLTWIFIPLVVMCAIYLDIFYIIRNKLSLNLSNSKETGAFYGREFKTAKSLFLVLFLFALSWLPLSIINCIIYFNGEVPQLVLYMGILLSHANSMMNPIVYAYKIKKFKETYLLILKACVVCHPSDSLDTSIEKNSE

Vasopressin V2 receptor = Vasopressin V2 receptor (Homo sapiens, UniProt P30518)
[1] = molecular target: T2, Muscarinic acetylcholine receptor M1 (Homo sapiens, UniProt P11229); assay type: functional
T2 sequence (P11229 whole entry): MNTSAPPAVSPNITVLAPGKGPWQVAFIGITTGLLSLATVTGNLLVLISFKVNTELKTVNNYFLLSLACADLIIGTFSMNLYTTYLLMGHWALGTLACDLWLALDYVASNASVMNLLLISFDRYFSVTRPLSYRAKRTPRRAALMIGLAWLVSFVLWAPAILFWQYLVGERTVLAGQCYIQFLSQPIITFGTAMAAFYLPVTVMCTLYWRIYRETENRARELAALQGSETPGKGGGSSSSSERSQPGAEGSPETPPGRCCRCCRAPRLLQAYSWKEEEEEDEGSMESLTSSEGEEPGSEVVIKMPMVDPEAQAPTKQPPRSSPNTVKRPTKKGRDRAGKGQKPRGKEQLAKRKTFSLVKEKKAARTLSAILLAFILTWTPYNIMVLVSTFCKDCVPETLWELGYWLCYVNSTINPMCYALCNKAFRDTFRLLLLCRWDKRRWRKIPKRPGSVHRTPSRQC

Cannabinoid receptor 1 [2] = molecular target: T3, Cannabinoid receptor 1 (Homo sapiens, UniProt P21554); assay type: functional, cell-based
T3 sequence (P21554 whole entry): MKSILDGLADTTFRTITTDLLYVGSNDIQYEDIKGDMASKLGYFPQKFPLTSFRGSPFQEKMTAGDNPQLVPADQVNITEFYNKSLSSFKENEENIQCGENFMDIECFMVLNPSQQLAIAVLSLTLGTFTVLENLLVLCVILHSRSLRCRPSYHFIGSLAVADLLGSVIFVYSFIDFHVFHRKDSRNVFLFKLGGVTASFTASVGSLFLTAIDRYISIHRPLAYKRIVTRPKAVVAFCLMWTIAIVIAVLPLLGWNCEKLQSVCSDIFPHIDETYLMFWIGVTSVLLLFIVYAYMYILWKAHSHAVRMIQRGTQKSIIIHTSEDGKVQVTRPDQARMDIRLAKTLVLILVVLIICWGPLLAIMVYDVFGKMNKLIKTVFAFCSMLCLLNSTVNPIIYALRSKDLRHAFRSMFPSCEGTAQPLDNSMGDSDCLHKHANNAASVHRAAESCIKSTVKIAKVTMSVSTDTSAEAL

Cannabinoid receptor 1 [3] = molecular target: T3, Cannabinoid receptor 1; assay type: functional, cell-based; remark: listed apart in the source
Endothelin-1 receptor = molecular target: T4, Endothelin-1 receptor (Homo sapiens, UniProt P25101)
T4 sequence (P25101 whole entry): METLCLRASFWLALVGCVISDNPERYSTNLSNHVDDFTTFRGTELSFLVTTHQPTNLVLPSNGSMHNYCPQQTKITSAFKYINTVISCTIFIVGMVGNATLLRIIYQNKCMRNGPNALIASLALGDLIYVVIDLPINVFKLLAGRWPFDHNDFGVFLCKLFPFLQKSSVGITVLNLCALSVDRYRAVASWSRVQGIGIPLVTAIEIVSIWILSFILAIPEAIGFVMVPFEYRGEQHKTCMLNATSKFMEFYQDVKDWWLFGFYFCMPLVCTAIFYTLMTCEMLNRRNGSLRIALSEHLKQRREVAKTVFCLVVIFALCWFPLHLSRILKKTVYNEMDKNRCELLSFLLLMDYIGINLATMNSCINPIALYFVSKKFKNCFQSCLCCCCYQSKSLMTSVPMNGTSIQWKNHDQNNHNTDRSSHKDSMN

[4] = molecular target: Growth hormone secretagogue receptor type 1 (Homo sapiens, UniProt Q92847)
Sequence of Growth hormone secretagogue receptor type 1 (Q92847 whole entry): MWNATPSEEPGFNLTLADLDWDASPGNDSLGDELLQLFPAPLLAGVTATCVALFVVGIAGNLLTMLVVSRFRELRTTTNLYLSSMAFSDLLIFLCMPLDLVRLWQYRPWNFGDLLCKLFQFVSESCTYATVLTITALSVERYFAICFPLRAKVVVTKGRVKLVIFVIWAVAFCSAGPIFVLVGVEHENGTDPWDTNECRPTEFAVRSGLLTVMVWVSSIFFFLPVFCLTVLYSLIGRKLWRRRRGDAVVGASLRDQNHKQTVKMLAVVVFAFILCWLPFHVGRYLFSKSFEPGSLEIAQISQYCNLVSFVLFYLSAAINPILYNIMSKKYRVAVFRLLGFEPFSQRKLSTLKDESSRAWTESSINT

[5] = molecular target: Glutamate receptor ionotropic, NMDA 1 (Rattus norvegicus, UniProt P35439)
[6] = molecular target: T5, 5-hydroxytryptamine receptor 1A (Homo sapiens, UniProt P08908); assay type: functional, cell-based
T5 sequence (P08908 whole entry): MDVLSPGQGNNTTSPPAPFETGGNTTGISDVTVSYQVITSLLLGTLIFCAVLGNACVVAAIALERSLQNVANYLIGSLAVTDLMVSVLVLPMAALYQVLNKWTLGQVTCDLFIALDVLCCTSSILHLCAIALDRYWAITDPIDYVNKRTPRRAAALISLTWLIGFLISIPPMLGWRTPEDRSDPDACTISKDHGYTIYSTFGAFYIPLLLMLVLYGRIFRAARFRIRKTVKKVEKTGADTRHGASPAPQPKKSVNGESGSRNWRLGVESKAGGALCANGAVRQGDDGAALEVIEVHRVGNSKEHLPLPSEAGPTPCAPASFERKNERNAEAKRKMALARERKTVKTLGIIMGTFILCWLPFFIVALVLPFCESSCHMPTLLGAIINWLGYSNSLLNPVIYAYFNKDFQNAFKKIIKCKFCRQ

[7] = molecular target: T5, 5-hydroxytryptamine receptor 1A; assay type: functional, cell-based; remark: listed apart in the source
[8] = molecular target: T6, 5-hydroxytryptamine receptor 2B (Homo sapiens, UniProt P41595); assay type: functional, cell-based
T6 sequence (P41595 whole entry): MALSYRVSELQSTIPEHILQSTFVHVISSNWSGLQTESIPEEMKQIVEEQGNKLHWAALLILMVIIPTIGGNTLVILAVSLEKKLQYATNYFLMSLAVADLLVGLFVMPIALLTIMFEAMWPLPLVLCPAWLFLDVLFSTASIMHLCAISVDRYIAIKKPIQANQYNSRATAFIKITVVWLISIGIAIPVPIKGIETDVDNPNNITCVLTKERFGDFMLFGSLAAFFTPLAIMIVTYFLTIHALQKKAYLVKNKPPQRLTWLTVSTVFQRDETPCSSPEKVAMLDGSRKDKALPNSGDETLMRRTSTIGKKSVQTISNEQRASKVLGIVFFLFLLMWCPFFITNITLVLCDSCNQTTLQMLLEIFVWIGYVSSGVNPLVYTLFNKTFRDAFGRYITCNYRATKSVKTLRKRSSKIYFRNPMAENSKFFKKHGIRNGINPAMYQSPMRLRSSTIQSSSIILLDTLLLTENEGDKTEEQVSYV

[9] = molecular target: T6, 5-hydroxytryptamine receptor 2B; assay type: functional, cell-based; remark: listed apart in the source
[10] = molecular target: 3',5'-cyclic-AMP phosphodiesterase 4D (Homo sapiens, UniProt Q08499); assay type: functional
Sequence of 3',5'-cyclic-AMP phosphodiesterase 4D (Q08499 whole entry): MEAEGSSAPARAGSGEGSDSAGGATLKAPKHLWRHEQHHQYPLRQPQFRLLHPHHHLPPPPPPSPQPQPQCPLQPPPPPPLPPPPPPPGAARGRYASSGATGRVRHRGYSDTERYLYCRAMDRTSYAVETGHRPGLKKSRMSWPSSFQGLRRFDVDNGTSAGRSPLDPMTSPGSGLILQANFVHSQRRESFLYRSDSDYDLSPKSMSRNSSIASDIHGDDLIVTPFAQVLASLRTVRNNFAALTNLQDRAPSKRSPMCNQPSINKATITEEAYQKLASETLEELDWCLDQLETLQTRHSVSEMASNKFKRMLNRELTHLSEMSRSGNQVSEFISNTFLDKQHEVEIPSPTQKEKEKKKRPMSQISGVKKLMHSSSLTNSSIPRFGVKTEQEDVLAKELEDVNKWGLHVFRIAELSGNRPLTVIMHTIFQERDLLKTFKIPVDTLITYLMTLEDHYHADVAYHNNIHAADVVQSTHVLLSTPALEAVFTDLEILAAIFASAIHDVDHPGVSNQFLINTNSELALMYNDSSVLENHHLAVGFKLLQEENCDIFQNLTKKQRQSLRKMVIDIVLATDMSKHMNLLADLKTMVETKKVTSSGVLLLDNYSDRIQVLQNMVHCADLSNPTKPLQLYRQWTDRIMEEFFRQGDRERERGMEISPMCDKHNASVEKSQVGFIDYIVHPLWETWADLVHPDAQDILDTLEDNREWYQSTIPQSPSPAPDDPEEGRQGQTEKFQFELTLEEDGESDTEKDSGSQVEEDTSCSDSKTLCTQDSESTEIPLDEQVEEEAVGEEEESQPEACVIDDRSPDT

[11] = molecular target: T7, Equilibrative nucleoside transporter 1 (Homo sapiens, UniProt Q99808)
T7 sequence (Q99808 whole entry): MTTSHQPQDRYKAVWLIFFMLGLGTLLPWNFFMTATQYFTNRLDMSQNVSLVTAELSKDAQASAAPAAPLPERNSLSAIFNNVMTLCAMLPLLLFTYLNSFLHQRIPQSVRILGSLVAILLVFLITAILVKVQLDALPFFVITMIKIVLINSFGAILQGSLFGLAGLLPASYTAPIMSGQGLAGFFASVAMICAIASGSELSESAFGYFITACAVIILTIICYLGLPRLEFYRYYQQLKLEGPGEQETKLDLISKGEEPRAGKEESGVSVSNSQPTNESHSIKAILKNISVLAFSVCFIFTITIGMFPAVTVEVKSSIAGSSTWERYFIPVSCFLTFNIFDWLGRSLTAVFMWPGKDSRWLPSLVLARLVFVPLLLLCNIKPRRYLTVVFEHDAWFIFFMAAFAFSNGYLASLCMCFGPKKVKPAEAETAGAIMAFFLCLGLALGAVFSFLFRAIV

[12] = molecular target: Sodium-dependent serotonin transporter (Homo sapiens, UniProt P31645)
Sequence of Sodium-dependent serotonin transporter (P31645 whole entry): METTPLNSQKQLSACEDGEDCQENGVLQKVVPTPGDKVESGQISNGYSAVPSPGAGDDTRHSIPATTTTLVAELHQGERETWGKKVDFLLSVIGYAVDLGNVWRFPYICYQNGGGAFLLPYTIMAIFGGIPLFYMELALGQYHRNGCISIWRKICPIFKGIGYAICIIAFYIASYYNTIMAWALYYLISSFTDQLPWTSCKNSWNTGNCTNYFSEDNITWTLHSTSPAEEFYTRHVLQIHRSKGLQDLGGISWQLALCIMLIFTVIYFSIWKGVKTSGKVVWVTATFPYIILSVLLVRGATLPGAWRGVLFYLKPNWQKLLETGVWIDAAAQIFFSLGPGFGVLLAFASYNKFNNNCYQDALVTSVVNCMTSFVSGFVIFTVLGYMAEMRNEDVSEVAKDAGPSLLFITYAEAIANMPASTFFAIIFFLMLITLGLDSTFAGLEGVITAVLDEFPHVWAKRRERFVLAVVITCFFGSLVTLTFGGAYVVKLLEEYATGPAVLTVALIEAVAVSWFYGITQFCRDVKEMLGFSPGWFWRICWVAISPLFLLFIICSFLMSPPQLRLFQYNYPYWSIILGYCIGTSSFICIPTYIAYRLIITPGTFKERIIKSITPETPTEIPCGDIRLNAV

[13] = molecular target: Voltage-dependent L-type calcium channel subunit alpha-1C (Rattus norvegicus, UniProt P22002); assay type: functional
Sequence of Voltage-dependent L-type calcium channel subunit alpha-1C (P22002 whole entry): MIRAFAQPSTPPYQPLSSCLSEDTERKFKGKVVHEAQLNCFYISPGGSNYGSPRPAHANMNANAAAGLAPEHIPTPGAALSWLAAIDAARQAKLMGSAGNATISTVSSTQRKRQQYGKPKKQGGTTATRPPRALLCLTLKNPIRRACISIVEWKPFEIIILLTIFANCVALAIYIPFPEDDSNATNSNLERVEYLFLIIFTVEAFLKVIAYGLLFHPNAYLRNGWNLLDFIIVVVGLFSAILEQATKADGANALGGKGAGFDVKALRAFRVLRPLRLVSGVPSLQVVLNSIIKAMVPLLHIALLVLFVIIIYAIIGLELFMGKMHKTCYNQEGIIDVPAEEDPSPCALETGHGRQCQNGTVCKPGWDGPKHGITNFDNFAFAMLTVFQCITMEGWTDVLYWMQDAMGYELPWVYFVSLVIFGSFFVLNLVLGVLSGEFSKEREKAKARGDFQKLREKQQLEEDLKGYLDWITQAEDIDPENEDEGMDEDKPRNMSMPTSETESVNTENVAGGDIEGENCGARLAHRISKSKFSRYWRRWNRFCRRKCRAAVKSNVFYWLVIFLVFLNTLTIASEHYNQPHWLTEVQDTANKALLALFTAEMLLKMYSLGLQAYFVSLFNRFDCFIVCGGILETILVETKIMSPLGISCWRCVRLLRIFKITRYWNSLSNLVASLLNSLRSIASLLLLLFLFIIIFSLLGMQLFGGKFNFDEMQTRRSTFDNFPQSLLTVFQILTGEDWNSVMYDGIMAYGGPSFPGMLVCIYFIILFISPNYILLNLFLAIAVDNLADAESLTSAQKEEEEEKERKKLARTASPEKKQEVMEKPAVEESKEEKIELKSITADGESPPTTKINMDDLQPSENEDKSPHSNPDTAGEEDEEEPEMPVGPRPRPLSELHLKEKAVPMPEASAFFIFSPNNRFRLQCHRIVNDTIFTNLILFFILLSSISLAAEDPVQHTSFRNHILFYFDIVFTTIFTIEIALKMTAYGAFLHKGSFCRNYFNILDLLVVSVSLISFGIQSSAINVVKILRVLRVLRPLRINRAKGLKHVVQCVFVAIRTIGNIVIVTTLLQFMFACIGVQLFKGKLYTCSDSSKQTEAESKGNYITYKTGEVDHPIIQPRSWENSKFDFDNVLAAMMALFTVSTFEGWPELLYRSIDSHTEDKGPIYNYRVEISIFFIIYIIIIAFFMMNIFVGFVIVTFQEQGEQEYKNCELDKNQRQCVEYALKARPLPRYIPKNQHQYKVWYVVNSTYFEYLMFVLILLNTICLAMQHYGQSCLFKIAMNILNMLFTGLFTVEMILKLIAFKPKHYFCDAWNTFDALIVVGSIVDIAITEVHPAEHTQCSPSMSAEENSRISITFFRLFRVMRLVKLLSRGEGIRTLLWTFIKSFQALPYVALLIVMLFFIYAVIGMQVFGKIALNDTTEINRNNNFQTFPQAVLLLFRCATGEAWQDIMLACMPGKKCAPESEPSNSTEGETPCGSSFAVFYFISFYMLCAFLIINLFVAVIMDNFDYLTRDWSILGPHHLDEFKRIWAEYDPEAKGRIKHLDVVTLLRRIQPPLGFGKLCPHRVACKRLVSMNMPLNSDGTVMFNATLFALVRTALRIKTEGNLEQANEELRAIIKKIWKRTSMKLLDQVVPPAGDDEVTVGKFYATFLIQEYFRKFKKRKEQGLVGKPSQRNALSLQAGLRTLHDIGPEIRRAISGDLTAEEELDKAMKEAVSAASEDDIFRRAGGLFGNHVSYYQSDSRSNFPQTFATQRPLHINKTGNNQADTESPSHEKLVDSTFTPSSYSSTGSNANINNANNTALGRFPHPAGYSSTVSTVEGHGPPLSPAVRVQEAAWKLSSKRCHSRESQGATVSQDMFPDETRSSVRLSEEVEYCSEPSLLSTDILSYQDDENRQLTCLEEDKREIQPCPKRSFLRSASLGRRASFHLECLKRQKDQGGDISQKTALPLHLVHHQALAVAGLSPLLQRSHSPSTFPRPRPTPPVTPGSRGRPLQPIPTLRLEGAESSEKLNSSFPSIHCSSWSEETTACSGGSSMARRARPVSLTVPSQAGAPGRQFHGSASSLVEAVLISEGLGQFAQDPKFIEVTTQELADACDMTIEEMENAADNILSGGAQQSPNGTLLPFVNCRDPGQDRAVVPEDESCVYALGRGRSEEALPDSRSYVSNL

Mu-type opioid receptor = Mu-type opioid receptor (Homo sapiens, UniProt P35372); assay: biochemical; assay type: functional
Also: assay procedure not described here.

SMILES | AC50 (Adenosine receptor A3) [µM] | AC50 (Vasopressin V2 receptor) [µM] | AC50 [1] [µM] | AC50 (Cannabinoid receptor 1 [2]) [µM] | AC50 (Cannabinoid receptor 1 [3]) [µM] | AC50 (Endothelin-1 receptor) [µM] | AC50 [4] [µM] | AC50 [5] [µM] | AC50 [6] [µM] | AC50 [7] [µM] | AC50 [8] [µM] | AC50 [9] [µM] | AC50 [10] [µM] | AC50 [11] [µM] | AC50 [12] [µM] | AC50 [13] [µM] | AC50 (Mu-type opioid receptor) [µM]
C=C1CC[C@@]2(O)[C@H]3Cc4ccc(O)c5c4[C@@]2(CCN3CC2CC2)[C@H]1O5 | > 30 | > 30 | > 30 | > 30 | > 30 | > 30 | > 30 | > 30 | > 30 | > 30 | > 30 | > 30 | > 30 | > 30 | > 30 | – | –
CC(=O)OCC(=O)[C@@]12OC3(CCCC3)O[C@@H]1C[C@H]1[C@@H]3CCC4=CC(=O)C=C[C@]4(C)[C@@]3(F)[C@@H](O)C[C@@]12C [AMCINONIDE] | > 10 | > 10 | > 10 | – | – | – | > 10 | > 10 | > 10 | > 10 | > 10 | > 10 | > 30 | > 10 | > 10 | > 10 | > 30
CN1CCc2cccc3c2[C@H]1Cc1ccc(O)c(O)c1-3 [APOMORPHINE] | 0.67 | > 30 | > 30 | > 30 | > 30 | > 30 | > 30 | > 10 | – | – | > 10 | 4.7 | 2.2 | > 30 | 21.9 | > 10 | –
NC(CO)C(=O)NNCc1ccc(O)c(O)c1O (configuration not stated) [BENSERAZIDE] | 21.6 | > 30 | > 10 | > 30 | > 30 | > 30 | > 30 | > 10 | > 10 | > 10 | > 10 | > 10 | > 30 | > 30 | > 30 | > 10 | –
CN(C)C(=O)OC1N=C(c2ccccc2)c2cc(Cl)ccc2N(C)C1=O (configuration not stated) [CAMAZEPAM] | > 30 | > 30 | > 10 | > 30 | > 30 | > 30 | > 30 | > 10 | > 10 | > 10 | > 10 | 18 | 4.3 | > 30 | > 10 | > 10 | –
O=C(CCCCC(=O)Nc1c(I)cc(I)c(C(=O)O)c1I)Nc1c(I)cc(I)c(C(=O)O)c1I [IODIPAMIDE] | > 10 | > 10 | > 10 | – | – | – | > 10 | > 10 | > 10 | > 10 | > 10 | > 10 | > 30 | > 10 | > 10 | > 10 | > 30
CC(C)[N+](C)(CCC(C(N)=O)(c1ccccc1)c1ccccc1)C(C)C [ISOPROPAMIDE] | > 10 | > 10 | 0.013 | – | – | – | > 10 | > 10 | > 10 | > 10 | > 10 | > 10 | > 30 | > 10 | > 10 | > 10 | > 30
COC(=O)C1=C(C)NC(C)=C(C(=O)OC(C)C)C1c1cccc2nonc12 (configuration not stated) [ISRADIPINE] | 20.3 | > 30 | > 30 | – | – | – | > 30 | > 10 | > 10 | > 10 | > 10 | > 10 | 9 | > 30 | > 30 | 0.0045 | > 30
CC1=CC(=O)c2ccccc2C1=O [MENADIONE] | 13.7 | > 10 | > 30 | – | – | – | > 10 | > 10 | > 10 | > 10 | > 10 | > 10 | > 30 | > 10 | > 10 | > 10 | > 30
Cc1cc(-c2ccccc2)nnc1NCCN1CCOCC1 [MINAPRINE] | > 30 | > 30 | > 10 | > 30 | > 30 | > 30 | > 30 | > 10 | > 10 | > 10 | > 10 | 5.4 | > 30 | > 30 | > 10 | > 10 | –
CN1CCCN=C1COC(=O)C(O)(c1ccccc1)C1CCCCC1 (configuration not stated) [OXYPHENCYCLIMINE] | > 10 | > 10 | 0.019 | – | – | – | > 10 | > 10 | > 10 | > 10 | > 10 | > 10 | > 30 | 27.5 | > 30 | > 10 | > 30
CN1CCN(C(=O)OC2c3nccnc3C(=O)N2c2ccc(Cl)cn2)CC1 (configuration not stated) [ZOPICLONE] | 18.3 | > 30 | > 30 | > 30 | > 30 | > 30 | > 30 | > 10 | > 10 | > 10 | > 10 | > 10 | > 30 | > 30 | > 30 | > 10 | –
